Experimental findings from PubChem BioAssay (NCI) are described below.

Where “and” joins values, the source holds several entries; their conditions need not be identical. Equal entries are not always repeated.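 Test compounds were applied to cells in 96-well plates for 48 hours at 5 doses. Abbreviation: GI50, concentration required for 50% inhibition of growth. The concentration for full growth arrest is given as TGI.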

Test systems include MALME-3M melanoma; A498 renal; HCC-2998 colon; HS 578T breast; KM12 colon; UACC-257 melanoma; UACC-62 melanoma; LOX IMVI melanoma; OVCAR-3 ovarian; TK-10 renal.
Test in all cases: NCI tumour cell line growth inhibition, 48 h

Take `COc1cc2c3c(n(C)c(=O)c2cc1OC)-c1cc2c(cc1/C3=C\CCCBr)OCO2`: the GI50 in the experiment on MALME-3M melanoma is 7.2 µM; in the experiment with A498 renal, 26.3 µM; with HS 578T breast, 14.4 µM; in the experiment with KM12 colon, more than 100 µM; in the experiment on UACC-257 melanoma it was more than 41.5 µM; with UACC-62 melanoma, 7.55 µM. For the same molecule, the GI50 was 42 µM with LOX IMVI melanoma, more than 92.2 µM with OVCAR-3 ovarian and 15.2 µM in the experiment on TK-10 renal. Also, the TGI was more than 45.4 µM with MALME-3M melanoma; 68.9 µM with A498 renal; more than 51.3 µM with HCC-2998 colon; more than 57.4 µM with HS 578T breast; more than 100 µM in the experiment with KM12 colon; more than 100 µM with UACC-257 melanoma. The TGI in the experiment with UACC-62 melanoma is 28.9 µM; in the experiment with LOX IMVI melanoma it was more than 100 µM; in the experiment on OVCAR-3 ovarian it was more than 100 µM; with TK-10 renal it was more than 53.4 µM.
As for `COc1cc([C@@H]2c3cc4c(cc3[C@H](O)[C@H]3COC(=O)[C@H]23)OCO4)cc(OC)c1OC`, the TGI in the experiment with MALME-3M melanoma is > 100 µM and 50 µM; in the experiment on HS 578T breast it was > 100 µM and 50 µM and > 94 µM; in the experiment with UACC-257 melanoma it was > 100 µM and 50 µM; with UACC-62 melanoma, > 100 µM and 34.7 µM; in the experiment with LOX IMVI melanoma, > 100 µM and 50 µM; with TK-10 renal, > 100 µM and 50 µM. Moreover, the GI50 is less than 0.01 µM in the experiment with A498 renal; less than 0.005 µM with HCC-2998 colon; less than 0.01 µM with HS 578T breast; less than 0.01 µM with KM12 colon; less than 0.01 µM in the experiment with UACC-62 melanoma; less than 0.01 µM in the experiment on LOX IMVI melanoma. Besides, the GI50 in the experiment with OVCAR-3 ovarian and in the experiment on TK-10 renal was less than 0.005 µM throughout.
On to `C=C1CCC2C3(C)COC(c4ccc(SC)cc4)OC3CCC2(C)C1C/C=C1/C(=O)OCC1O` (configuration not stated), for which the GI50 with MALME-3M melanoma is 14.9 µM; in the experiment on A498 renal it was 8.64 µM; in the experiment on HCC-2998 colon it was 11.9 µM; in the experiment on HS 578T breast, 5.17 µM; with KM12 colon, 5.21 µM; in the experiment with UACC-257 melanoma, 4.17 µM. The GI50 in the experiment on UACC-62 melanoma was 5.45 µM; with LOX IMVI melanoma, 1.44 µM; with OVCAR-3 ovarian, 2.8 µM; with TK-10 renal, 14 µM. Moreover, the TGI came to 32.1 µM in the experiment on MALME-3M melanoma; 22.4 µM in the experiment on A498 renal; 24.9 µM in the experiment on HCC-2998 colon; 17 µM in the experiment on HS 578T breast; 17.6 µM in the experiment with KM12 colon; 17.4 µM in the experiment on UACC-257 melanoma. Further, the TGI in the experiment on UACC-62 melanoma amounted to 20.4 µM; in the experiment with LOX IMVI melanoma, 3.01 µM; in the experiment on OVCAR-3 ovarian, 6.91 µM; with TK-10 renal, 29.9 µM.
Consider `OC(COc1cccc2ccccc12)CN1CCN(c2ccccc2)CC1` (configuration not stated), for which the GI50 in the experiment on MALME-3M melanoma is 15.3 µM; in the experiment on A498 renal, 13.5 µM; in the experiment on HCC-2998 colon, 16.5 µM; in the experiment with HS 578T breast it was 15.8 µM; in the experiment with KM12 colon, 16.1 µM; in the experiment with UACC-257 melanoma it was 16 µM. Besides, the GI50 in the experiment on UACC-62 melanoma was 14.1 µM; in the experiment with LOX IMVI melanoma it was 15.8 µM; in the experiment with OVCAR-3 ovarian, 15.1 µM; in the experiment with TK-10 renal, 13.6 µM. Also, the TGI with MALME-3M melanoma stood at 31.4 µM; with A498 renal it was 26.4 µM; in the experiment on HCC-2998 colon it was 30.7 µM; in the experiment with HS 578T breast, 47.3 µM; in the experiment on KM12 colon, 31 µM; in the experiment on UACC-257 melanoma it was 30.1 µM. The TGI in the experiment with UACC-62 melanoma was determined as 28.5 µM; with LOX IMVI melanoma it was 31.1 µM; with OVCAR-3 ovarian it was 28.8 µM; in the experiment on TK-10 renal it was 26.9 µM.
Regarding `COC(=O)c1ccc([N+](=O)[O-])c(O)c1`, the TGI with MALME-3M melanoma, with A498 renal, in the experiment with HCC-2998 colon, in the experiment on HS 578T breast, in the experiment on KM12 colon and in the experiment with UACC-257 melanoma was more than 100 µM in each case. The TGI with UACC-62 melanoma, with LOX IMVI melanoma, in the experiment on OVCAR-3 ovarian and with TK-10 renal was more than 100 µM each time.
In the case of `Cc1cc(-c2nc(-c3ccc(OC(F)(F)F)cc3)no2)nn1Cc1ccnc(N2CCN(C3CC3)CC2)c1`, the GI50 with MALME-3M melanoma was 4.77 µM; in the experiment with A498 renal, 0.482 µM; in the experiment on HCC-2998 colon, 7.05 µM; in the experiment on HS 578T breast, more than 38.4 µM; with KM12 colon it was 6.88 µM; in the experiment with UACC-257 melanoma, 2.84 µM. Besides, the GI50 in the experiment with UACC-62 melanoma was 4.23 µM; in the experiment on LOX IMVI melanoma, 0.272 µM; with OVCAR-3 ovarian, 10.3 µM; in the experiment with TK-10 renal, 11.2 µM. The TGI was more than 55.6 µM in the experiment with MALME-3M melanoma; more than 100 µM in the experiment with A498 renal; 24.5 µM in the experiment on HCC-2998 colon; more than 72.6 µM in the experiment on HS 578T breast; more than 91.9 µM in the experiment with KM12 colon; more than 55.4 µM with UACC-257 melanoma. Besides, the TGI is more than 49.1 µM in the experiment on UACC-62 melanoma, more than 45.6 µM with LOX IMVI melanoma, more than 100 µM in the experiment on OVCAR-3 ovarian and more than 100 µM with TK-10 renal.
`CC1=C(/C=C/C(C)=C/C=C/C(C)=C/C(=O)Nc2ccc(O)cc2)C(C)(C)CCC1`: the GI50 in the experiment on MALME-3M melanoma was 2.1 µM; with A498 renal, 1.96 µM; in the experiment on HCC-2998 colon, 2.12 µM; with HS 578T breast it was 6.25 µM; in the experiment with KM12 colon, 1.58 µM; with UACC-257 melanoma it was 4.55 µM. The GI50 in the experiment on LOX IMVI melanoma was 0.588 µM; in the experiment with OVCAR-3 ovarian it was 1.5 µM; in the experiment on TK-10 renal, 5.07 µM. Moreover, the TGI in the experiment with MALME-3M melanoma was 6.48 µM and 18.7 µM; in the experiment with A498 renal, 9.07 µM and 19.1 µM; in the experiment with HCC-2998 colon, 5.97 µM and 18 µM; in the experiment with HS 578T breast it was 27.4 µM and 13.7 µM; in the experiment on KM12 colon, 6.19 µM and 17.2 µM; in the experiment on UACC-257 melanoma it was 17.4 µM and 24 µM. The TGI in the experiment on UACC-62 melanoma was 6.94 µM and 7.34 µM; in the experiment on LOX IMVI melanoma, 2.26 µM and 4.76 µM; with OVCAR-3 ovarian, 3.13 µM and 7.54 µM; in the experiment on TK-10 renal, 15.5 µM and 35.4 µM.
